Our source for the GI50 and TGI values is PubChem BioAssay (NCI).

Test in all cases: inhibition of tumour cell growth, NCI panel, 48 h
The test system of assay [1] is A549 NSCLC.
Assay [2] relates to SNB-75 CNS.
Assay [3] concerns HCT-15 colon.
The test system of assay [4] is SK-MEL-5 melanoma.
Assay [5] concerns T-47D breast.
Assay [6] relates to CCRF-CEM leukemia.
For assay [7], the system named is BT-549 breast.
The subject of assay [8] is OVCAR-3 ovarian.
Assay [9] relates to 786-0 renal.
Assay [10] relates to SR leukemia.

The structures appear in SMILES notation.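 All cell lines were grown in 96-well plates and treated with compound for 48 hours. At the GI50, growth is halved. TGI marks complete inhibition of growth.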

Turning to `Cn1c(=O)c(Cc2ccccc2F)cc2cnc(NC3CCOCC3)nc21`, the GI50 was greater than 25 µM in assay [1]; greater than 8.48 µM in assay [2]; greater than 25 µM in assay [3]; greater than 25 µM in [4]; greater than 25 µM in assay [5]; greater than 25 µM in [6]. In addition, the GI50 in [7], in [8], in assay [9] and in [10] was greater than 25 µM throughout. Besides, the TGI in assay [1], in assay [2], in [3], in [4], in assay [5] and in assay [6] was greater than 25 µM throughout. For the same compound, the TGI in assay [7], in assay [8], in assay [9] and in assay [10] was greater than 25 µM throughout.
As to `CC/C=C\C[C@H]1C/C=C2/C(=O)C=C[C@@H]2C/C=C\CCCC(=O)O1`, the GI50 was 2.23 µM in [1]; 4.02 µM in assay [2]; 0.423 µM in assay [3]; 1.38 µM in [4]; 1.21 µM in assay [5]; 0.339 µM in assay [6]. The GI50 in assay [7] was 0.674 µM; in [8] it was 0.734 µM; in assay [9] it was 0.637 µM; in [10], 0.288 µM. In addition, the TGI in assay [1] was 9.05 µM; in [2], 18 µM; in [3] it was 2.86 µM; in [4] it was 2.74 µM; in [5], 9.33 µM; in [6], 5.04 µM. The TGI was determined as 3.22 µM in [7], 3.9 µM in assay [8] and 1.89 µM in [9].
`COc1cc(C(=O)c2cc(C)c3[nH]c4ccc(C)cc4c3c2C)cc(OC)c1OC`: the GI50 is less than 0.01 µM in assay [1]; less than 0.01 µM in assay [2]; less than 0.01 µM in assay [3]; less than 0.01 µM in [4]; 0.287 µM in [5]; less than 0.01 µM in [6]. The GI50 in [7], in assay [8], in assay [9] and in assay [10] was less than 0.01 µM each time. Also, the TGI in [1] was greater than 100 µM; in assay [3] it was greater than 100 µM; in assay [4], less than 0.0146 µM; in [5] it was greater than 100 µM; in [6], greater than 100 µM; in assay [7], 2.45 µM. In addition, the results for the TGI in [9] and in [10] were 3.17 µM and greater than 100 µM, respectively.
On to `CC1(C)[C@@H](OC(N)=O)[C@H]2O[C@H]2[C@]2(C=O)[C@H]3CC[C@]4(C)[C@@H](c5ccc(=O)oc5)[C@@H](Cl)C[C@]4(O)C3=CC[C@@H]12`, for which the GI50 is 0.00442 µM in assay [1]; 0.00449 µM in assay [2]; 0.0056 µM in assay [3]; 0.00459 µM in assay [4]; 0.00656 µM in assay [5]; 0.00571 µM in assay [6]. In addition, the GI50 in assay [7] is 0.00501 µM; in assay [8] it was 0.00487 µM; in assay [9] it was 0.00489 µM; in [10], 0.00617 µM. Further, the TGI in assay [1] is 0.00858 µM; in [2], 0.00972 µM; in assay [3], 0.0128 µM; in assay [4], 0.00887 µM; in assay [5] it was 0.0181 µM; in assay [6], 0.0147 µM. Also, the TGI in assay [7] was 0.0103 µM; in [8], 0.00981 µM; in assay [9], 0.0105 µM; in [10] it was 0.0185 µM.
Consider `COc1ccc(CC2NCCc3cc(OC)c(OC)cc32)cc1Br` (centres undefined), for which the TGI in assay [1] was greater than 100 µM; in assay [2], greater than 83.2 µM; in [3] it was greater than 100 µM; in [4], 19.9 µM; in assay [5] it was 63.1 µM; in [6] it was greater than 85.3 µM. Also, the TGI in [7] is greater than 100 µM; in assay [8], greater than 100 µM; in assay [9], greater than 100 µM; in assay [10], 74.6 µM.
For the compound `ClCC[N+]12CC[N+](CCCl)(CC1)C2`, the TGI in assay [1], in assay [2], in [3], in assay [4], in assay [5] and in [6] was greater than 100 µM throughout. The TGI in assay [7], in assay [8], in assay [9] and in assay [10] was greater than 100 µM throughout.
With `Cc1ccc2[nH]c(O)c(N=Nc3ccc(S(N)(=O)=O)cc3)c2c1`, the GI50 in assay [1] is 9.66 µM; in assay [2] it was 8.46 µM; in assay [3], 11.1 µM; in [4] it was 11 µM; in assay [5] it was 15.3 µM; in [6], 15.6 µM. Further, the GI50 in assay [7] was 9.88 µM; in assay [8], 6.73 µM; in assay [9] it was 23.5 µM; in assay [10], 7.23 µM. Further, the TGI in assay [1], in assay [2], in assay [3], in assay [4], in assay [5] and in assay [6] was greater than 25 µM each time. For the same compound, the TGI in assay [7] is greater than 18.4 µM; in assay [8], greater than 18.4 µM; in assay [9], greater than 25 µM; in assay [10] it was greater than 25 µM.
Turning to `CCn1c(-c2ccc(OC(C)=O)cc2)c(C)c2cc(OC(C)=O)ccc21`, the TGI in assay [1] is 67.9 µM; in assay [2] it was 50.2 µM; in assay [3] it was greater than 100 µM; in [4], 27.1 µM; in assay [5], 60.5 µM; in assay [6], 53.9 µM. The TGI came out at 88.8 µM in assay [7], 42.1 µM in [8], 86.9 µM in assay [9] and 30.8 µM in [10].
For `Nc1nc(F)nc2c1ncn2C1OC(CO)C(O)C1O` (centres undefined), the GI50 in assay [1] was 35.6 µM; in assay [3], 56.7 µM; in assay [4] it was 39.7 µM; in assay [5] it was greater than 56 µM; in assay [6], 1.21 µM; in assay [9], 13.2 µM. The GI50 in assay [10] was greater than 68.9 µM. Moreover, the TGI in assay [1] was greater than 100 µM; in [2], greater than 100 µM; in [3] it was greater than 100 µM; in [4] it was greater than 100 µM; in assay [5] it was greater than 100 µM; in assay [6], greater than 77 µM. Besides, the TGI in [7], in assay [8], in assay [9] and in [10] was greater than 100 µM throughout.
